Results on five molecules are retold here after patent US8258115B2, “Stable salts of S-adenosylmethionine and process for the preparation thereof” (priority 2007, dated 2012).

What all share (assay type): physicochemical
Data set [1] can be described thus: Stability test in thermostated heaters at 40° C. and 75% R.H., active ingredient %. The following applies: heat-sealed aluminium/aluminium bags. The procedure: (§1) In the following Tables 2-13, the percentage values are repotted which were obtained in the stability tests carried out on the products of examples 1-6. The stability tests were carried out in thermostated heaters at 40° C. and 75% R.H (tables 2-7) as well as 25° C. and 60% R.H. (tables 8-13), preserving the samples in heat-sealed aluminium/aluminium bags according to the following criteria: the active ingredient % was determined for every sampling point taken under consideration.

A short description of data set [2]: Stability test in thermostated heaters at 25° C. and 60% R.H., active ingredient %. To be noted: heat-sealed aluminium/aluminium bags. The protocol:
as §1

The nature of data set [3]: Degradation of the active stereoisomer S,S at 40° C. and 75% R.H. The protocol: (§2) In the following Tables 14-25, the percentage values are reported of the degradation of the active stereoisomer S,S calculated at 40° C. and 75% R.H. (Tables 14-19) and at 25° C. and 65% R.H.
Data set [4] in a line: Degradation of the active stereoisomer S,S at 25° C. and 65% R.H. The procedure:
as §2

A short description of data set [5]: Moisture % K.F. of the stability samples. The following applies: sample used in the stability test. The protocol: In the following Tables 2-13, the percentage values are repotted which were obtained in the stability tests carried out on the products of examples 1-6. The stability tests were carried out in thermostated heaters at 40° C. and 75% R.H (tables 2-7) as well as 25° C. and 60% R.H. (tables 8-13), preserving the samples in heat-sealed aluminium/aluminium bags according to the following criteria: […]

Take `C[S+](CCC(N)C(=O)[O-])C[C@H]1O[C@@H](n2cnc3c(N)ncnc32)[C@H](O)[C@@H]1O.C[S+](CCC(N)C(=O)[O-])C[C@H]1O[C@@H](n2cnc3c(N)ncnc32)[C@H](O)[C@@H]1O.Cl.[Cl-].[Cl-].[Mg+2]` (stereo partly shown) [SAMe•0.5HCl•0.5MgCl2]: the “stability test percentage value (active ingredient %), 30 days” value in data set [1] was determined as 0.56%; in data set [2], 0.35%. Further, the “stability test percentage value (active ingredient %), 60 days” value in data set [1] amounted to 0.87%. Besides, the “stability test percentage value (active ingredient %), 90 days” value is reported as 1.45% in data set [1] and 0.43% in data set [2]. The “stability test percentage value (active ingredient %), 120 days” value in data set [1] is given as 1.99%. Besides, the “stability test percentage value (active ingredient %), 180 days” value in data set [1] turned out to be 2.67%; in data set [2] it was 0.76%. In addition, the “stability test percentage value (active ingredient %), 360 days” value in data set [2] is 0.90%. Also, in data set [2], the “stability test percentage value (active ingredient %), 720 days” value turned out to be 1.07%. The “percentage of active S,S stereoisomer remaining” value in data set [3] (30 days) worked out at 92.5%; in data set [3] (60 days) it was 89.8%; in data set [3] (90 days), 84.5%; in data set [3] (120 days), 82.6%; in data set [3] (180 days) it was 76.6%; in data set [3] (T = 0), 98.9%. The “percentage of the active S,S stereoisomer remaining” value was determined as 96.5% in data set [4] (30 days); 94.8% in data set [4] (90 days); 93.7% in data set [4] (180 days); 92.6% in data set [4] (360 days); 89.5% in data set [4] (720 days); 98.9% in data set [4] (T = 0). Further, the “Moisture % K.F.” value in data set [5] was 0.54%.
For the molecule `C[S+](CCC(N)C(=O)[O-])C[C@H]1O[C@@H](n2cnc3c(N)ncnc32)[C@H](O)[C@@H]1O.C[S+](CCC(N)C(=O)[O-])C[C@H]1O[C@@H](n2cnc3c(N)ncnc32)[C@H](O)[C@@H]1O.O=S(=O)(O)O.[Ca+2].[Cl-].[Cl-]` (stereo partly shown) [SAMe•0.5H2SO4•0.5CaCl2], the entries for the “stability test percentage value (active ingredient %), 30 days” value in data set [1] and in data set [2] were 0.48% and 0.23%, respectively. Moreover, in data set [1], the “stability test percentage value (active ingredient %), 60 days” value worked out at 0.76%. Also, the “stability test percentage value (active ingredient %), 90 days” value worked out at 1.48% in data set [1] and 0.35% in data set [2]. In addition, in data set [1], the “stability test percentage value (active ingredient %), 120 days” value is 1.98%. In addition, the “stability test percentage value (active ingredient %), 180 days” value is on record as 3.99% in data set [1] and 0.57% in data set [2]. In addition, in data set [2], the “stability test percentage value (active ingredient %), 360 days” value came out at 0.78%. Moreover, the “stability test percentage value (active ingredient %), 720 days” value in data set [2] is reported as 0.99%. Also, the “percentage of active S,S stereoisomer remaining” value in data set [3] (30 days) worked out at 89.8%; in data set [3] (60 days), 86.8%; in data set [3] (90 days), 83.6%; in data set [3] (120 days), 80.6%; in data set [3] (180 days), 77.6%; in data set [3] (T = 0) it was 98.2%. Moreover, the “percentage of the active S,S stereoisomer remaining” value in data set [4] (30 days) worked out at 97.8%; in data set [4] (90 days) it was 96.7%; in data set [4] (180 days), 93.6%; in data set [4] (360 days) it was 90.8%; in data set [4] (720 days) it was 88.6%; in data set [4] (T = 0), 98.2%. Also, the “Moisture % K.F.” value in data set [5] is on record as 0.23%.
In the case of `C[S+](CCC(N)C(=O)[O-])C[C@H]1O[C@@H](n2cnc3c(N)ncnc32)[C@H](O)[C@@H]1O.Cl.Cl.[Cl-].[Cl-].[Mg+2]` (stereo partly shown) [SAMe•2.0HCl•1.0MgCl2], the entries for the “stability test percentage value (active ingredient %), 30 days” value in data set [1] and in data set [2] were 0.27% and 0.17%, respectively. Moreover, the “stability test percentage value (active ingredient %), 60 days” value in data set [1] is 0.45%. Moreover, the “stability test percentage value (active ingredient %), 90 days” value is 1.14% in data set [1] and 0.37% in data set [2]. In addition, the “stability test percentage value (active ingredient %), 120 days” value in data set [1] came to 1.45%. Also, the “stability test percentage value (active ingredient %), 180 days” value is reported as 1.89% in data set [1] and 0.58% in data set [2]. In addition, the “stability test percentage value (active ingredient %), 360 days” value in data set [2] is 0.74%. Further, in data set [2], the “stability test percentage value (active ingredient %), 720 days” value is given as 0.98%. The “percentage of active S,S stereoisomer remaining” value in data set [3] (30 days) is on record as 92.9%; in data set [3] (60 days) it was 87.8%; in data set [3] (90 days), 83.4%; in data set [3] (120 days), 82.1%; in data set [3] (180 days), 78.2%; in data set [3] (T = 0), 97.4%. Further, the “percentage of the active S,S stereoisomer remaining” value in data set [4] (30 days) is on record as 96.6%; in data set [4] (90 days), 95.7%; in data set [4] (180 days), 94.7%; in data set [4] (360 days), 92.5%; in data set [4] (720 days), 88.0%; in data set [4] (T = 0) it was 97.4%. In addition, in data set [5], the “Moisture % K.F.” value is 0.44%.
`C[S+](CCC(N)C(=O)[O-])C[C@H]1O[C@@H](n2cnc3c(N)ncnc32)[C@H](O)[C@@H]1O.C[S+](CCC(N)C(=O)[O-])C[C@H]1O[C@@H](n2cnc3c(N)ncnc32)[C@H](O)[C@@H]1O.Cl.O=S(=O)([O-])[O-].[Mg+2]` (stereo partly shown) [SAMe•0.5HCl•0.5MgSO4]: the results for the “stability test percentage value (active ingredient %), 30 days” value in data set [1] and in data set [2] were 0.48% and 0.31%, respectively. Besides, the “stability test percentage value (active ingredient %), 60 days” value in data set [1] is listed as 0.78%. Further, the figures for the “stability test percentage value (active ingredient %), 90 days” value in data set [1] and in data set [2] were 1.54% and 0.46%, respectively. Also, the “stability test percentage value (active ingredient %), 120 days” value in data set [1] is reported as 1.98%. Moreover, the “stability test percentage value (active ingredient %), 180 days” value came out at 2.78% in data set [1] and 0.77% in data set [2]. Also, the “stability test percentage value (active ingredient %), 360 days” value in data set [2] came out at 0.94%. Further, the “stability test percentage value (active ingredient %), 720 days” value in data set [2] is recorded as 1.19%. In addition, the “percentage of active S,S stereoisomer remaining” value in data set [3] (30 days) worked out at 92.8%; in data set [3] (60 days), 87.8%; in data set [3] (90 days), 84.6%; in data set [3] (120 days), 89.6%; in data set [3] (180 days), 72.6%; in data set [3] (T = 0) it was 98.9%. Moreover, the “percentage of the active S,S stereoisomer remaining” value in data set [4] (30 days) is on record as 97.8%; in data set [4] (90 days) it was 95.8%; in data set [4] (180 days), 94.3%; in data set [4] (360 days), 91.6%; in data set [4] (720 days) it was 88.2%; in data set [4] (T = 0), 98.9%. For the same molecule, the “Moisture % K.F.” value in data set [5] is given as 0.82%.
Consider `C[S+](CCC(N)C(=O)[O-])C[C@H]1O[C@@H](n2cnc3c(N)ncnc32)[C@H](O)[C@@H]1O.Cl.Cl.O=S(=O)([O-])[O-].[Mg+2]` (stereo partly shown) [SAMe•2.0HCl•1.0MgSO4], for which the results for the “stability test percentage value (active ingredient %), 30 days” value in data set [1] and in data set [2] were 0.27% and 0.19%, respectively. Moreover, the “stability test percentage value (active ingredient %), 60 days” value in data set [1] turned out to be 0.49%. Besides, the results for the “stability test percentage value (active ingredient %), 90 days” value in data set [1] and in data set [2] were 0.67% and 0.28%, respectively. Further, the “stability test percentage value (active ingredient %), 120 days” value in data set [1] amounted to 1.46%. The “stability test percentage value (active ingredient %), 180 days” value in data set [1] is reported as 1.62%; in data set [2] it was 0.41%. Further, the “stability test percentage value (active ingredient %), 360 days” value in data set [2] is reported as 0.65%. For the same molecule, the “stability test percentage value (active ingredient %), 720 days” value in data set [2] is 0.87%. Further, the “percentage of active S,S stereoisomer remaining” value in data set [3] (30 days) is recorded as 89.9%; in data set [3] (60 days), 87.9%; in data set [3] (90 days), 83.0%; in data set [3] (120 days) it was 79.1%; in data set [3] (180 days), 73.3%; in data set [3] (T = 0), 98.0%. For the same molecule, the “percentage of the active S,S stereoisomer remaining” value in data set [4] (30 days) stood at 86.5%; in data set [4] (90 days) it was 95.6%; in data set [4] (180 days), 93.0%; in data set [4] (360 days) it was 91.1%; in data set [4] (720 days), 88.2%; in data set [4] (T = 0), 98.0%. Also, the “Moisture % K.F.” value in data set [5] is on record as 0.52%.
